The record followed here is US10975365B2, “Di-enzymatic chimeric endolysin” (Government of the United States of America, as represented …, priority 2018, dated 2021).

Data set [1] has as its system eight serotypes of pneumococci. In words: MIC test on pneumococcal strains. The format is cell-based, Streptococcus pneumoniae. The protocol:
The MICs of enzymes and antibiotics were determined in a 96-well titration plate in triplicate. Briefly, the overnight pneumococcal culture was diluted with 2×THY to obtain a final concentration of 1×10^7 CFU/ml, and other bacterial species were diluted with 2-folded medium to 1×10^5 CFU/ml. 100 μl of the diluted bacterial culture was subjected into each well, mixing with the serial 2-fold diluted 100 μl of enzymes/antibiotics. PBS buffer was used as a negative control. The plates were sealed via parafilm and statically incubated at 37° C. incubator for 24 h. The MIC was defined as the lowest concentration of treatment that inhibited visible growth of the bacterium.
To further evaluate the activity of ClyX-1, MIC tests were performed against eight serotypes of pneumococci including penicillin-resistant strains and capsule-free mutant with information shown in FIG. 13. Penicillin and levofloxacin were tested as standards to benchmark the antimicrobial activity. All of the strains were sensitive to levofloxacin (MIC<=2). Only the two penicillin-resistant strains indicated MIC larger than 2 μg/ml (resistance). […] The MICs of ClyX-1 were lower than that of Cpl-1 and even levofloxacin, ranging from 0.13 μg/ml to 0.5 μg/ml.

The subject of data set [2] is S. pneumoniae ATCC TIGR 4. In words: Bacteriolytic (turbidity reduction) assay. Type of data set: cell-based, Streptococcus pneumoniae. The note with it: 5 μg/ml; OD from 1.0 to 0.2 within the first 2 min; overnight culture. The protocol: In a bacteriolytic assay, bacterial culture (stationary phase) was harvested at 5,000 for 10 min at 4° C., washed twice and resuspended in PBS buffer, pH7.4. In a 96-well titration plate, the resuspended bacterial solution was mixed 1:1 (u/u) with endolysin to a final OD600 between 0.8 to 1.0. In each run, PBS was included as a negative control. Spectrophotometric readings (OD600) were taken every 15 s over 10 min on a spectrophotometer. Vmax was calculated as the slope of the linear portion and represented the endolysins activity. All experiments were conducted in triplicate to get the standard deviation.
Bacteriolytic capacity of ClyX-1 and ClyX-1 linkers were analyzed via the turbidity reduction assay against the overnight culture of S. pneumoniae ATCC TIGR 4. Both enzymes-induced lysis of the bacterial peptidoglycan caused a decrease in OD from 1.0 to 0.2 (80%) within the first 2 min of the turbidity assay at 5 μg/ml as shown in FIG. 9a. The linkers were the only difference between these two enzymes, and the unstructured region of PlyCA GyH, PlyCA CHAP, and Cpl-1 CBD provide optimal flexibility for enzymatical activity. High lytic activity correlated with data for bacterial survival after chimera treatment. ClyX-1 sterilized cultures for 5 min, causing a decrease in TIGR 4 viability of ˜6 log, at as low as 0.5 μg/ml (FIG. 9b). […]

A value given as a limit tells only on which side of the number the result lay.

For the molecule `C[C@H]1COc2c(N3CCN(C)CC3)c(F)cc3c(=O)c(C(=O)O)cn1c23` [levofloxacin], the MIC result in data set [1] (all strains, 24 h, unit not given) is given as “<= 2”.

Take Penicillin: in data set [1] (the two penicillin-resistant strains), the MIC was greater than 2 µg/mL.

B1: ClyX-1 linkers: similar to ClyX-1 but with two extra native linkers in the PlyCA; Seq. ID No. 18 (protein)
chain: MSKKYTQQQYEKYLAQPANNTFGLSPQQVADWFMGQAGARPVINSYGVNASNLVSTYIPKMQEYGVSYTLFLMYTVFEGGGAGNWINHYMYDTGSNGLECLEHDLQYIHGVWETYFPPALSAPECYPATEDNAGALDRFYQSLPGRTWGDVMIPSTMAGNAWVWAYNYCVNNQGAAPLVYFGNPYDSQIDSLLAMGADPFTGGSITGDGKNPSVGTGNATVSASSECTMEEDDKPKTAGTWKQDSKGWWFRRNNGSFPYNKWEKIGGVWYYFDSKGYCLTSEWLKDNEKWYYLKDNGAMATGWVLVGSEWYYMDDSGAMVTGWVKYKNNWYYMTNERGNMVSNEFIKSGKGWYFMNTNGELADNPSFTKEPDGLITVALQQTNPNPDKPTVKSPGQNDLGSGSDRVAANLANAQAQVGKYIGDGQCYAWVGWWSARVCGYSISYSTGDPMLPLIGDGMNAHSIHLGWDWSIANTGIVNYPVGTVGRKEDLRVGAIWCATAFSGAPFYTGQYGHTGIIESWSDTTVTVLEQNILGSPVIRSTYDLNTFLSTLTGLITFK
modifications: Bacteriophage
notes: similar to ClyX-1 but with two extra native linkers in the PlyCA; ID No. 18
With B1, in data set [2], the “decrease in OD in turbidity assay” value was 80%.
